Reference: US20100317607A1, “USE OF COMPOUNDS FOR PREPARING ANTI-TUBERCULOSIS AGENTS” (INFECTIOUS DISEASE RESEARCH INSTITUTE, priority 2007, published 2010)
Values after ≈ are worked out from the molar mass of the structure shown. Counter-ions that a name gives are not always drawn.

Each compound was assayed on H37Rv strain of M. tuberculosis (assay: Alamar Blue Susceptibility Test (MABA)). Settings: H37Rv strain of M. tuberculosis; Alamar Blue.
Type: cell-based
`c1ccc2c(NC34CC5CC(CC(C5)C3)C4)nc(N3CCOCC3)nc2c1` [Compound 61, N-(1′-Adamantyl)-2-(morpholino)quinazolin-4-amine] was tested, and the “MABA (TB growth inhibition, colourimetric assay)” value was “+++ (10-50 μM=+++)”.
In the case of `Nc1nc(N2CCCCC2)nc2ccccc12` [compound 1, 2-(Piperidin-1-yl)quinazolin-4-amine, reference compound], the “MABA (TB growth inhibition, colourimetric assay)” value is reported as “−”.

Same assay, conditions: Mycobacterium tuberculosis; H37Rv strain of M. tuberculosis; Alamar Blue; read-out: MABA (TB growth inhibition, colourimetric assay)
Compound `Oc1ccc(CNc2nc(NCc3ccc(F)cc3)nc3ccccc23)cc1` [Compound 165, 4-((2-(4-Fluorobenzylamino)quinazolin-4-ylamino)methyl)phenol] has an MIC of 10 to 50 µM (≈ 3.74 to 18.7 µg/mL).
`Cc1ccc(CNc2nc(N3CCCCC3)nc3ccccc23)o1` [Compound 167, N-((5-Methylfuran-2-yl)methyl)-2-(piperidin-1-yl)quinazolin-4-amine] gave an MIC of less than 10 µM.
`c1ccc(C2CCN(c3nc(N4CCCCC4)nc4ccccc34)CC2)cc1` [Compound 90, 4-(4-Phenylpiperidin-1-yl)-2-(piperidin-1-yl)quinazoline] gave an MIC of 10 to 50 µM (≈ 3.73 to 18.6 µg/mL).
`COCCNc1nc(NCc2ccc(F)cc2)c2ccccc2n1` [Compound 207, N^4-(4-Fluorobenzyl)-N^2-(2-methoxyethyl)quinazoline-2,4-diamine] showed an MIC of 50 to 128 µM (≈ 16.3 to 41.8 µg/mL).
With `FC1(F)CCN(c2nc(NCc3ccc(C(F)(F)F)o3)c3ccccc3n2)CC1` [Compound 161, 2-(4,4-Difluoropiperidin-1-yl)-N-((5-(trifluoromethyl)furan-2-yl)methyl)quinazolin-4-amine hydrochloride] the MIC was 10 to 50 µM.
Work on `COC(=O)[C@@H]1CCCN1c1nc(NCc2ccccc2)c2ccccc2n1` [Compound 180, (S)-Methyl 1-(4-(benzylamino)quinazolin-2-yl)pyrrolidine-2-carboxylate] yielded an MIC of 50 to 128 µM (≈ 18.1 to 46.4 µg/mL).
Compound `O=[N+]([O-])c1ccc(NCCNc2nc(N3CCOCC3)nc3ccccc23)cc1` [Compound 7, N^1-(2-Morpholinoquinazolin-4-yl)-N^2-(4-nitrophenyl)ethane-1,2-diamine] has an MIC of 50 to 128 µM (≈ 19.7 to 50.5 µg/mL).
With `Fc1ccc(CNc2nc(N3CCC(F)(F)CC3)nc3cc(F)ccc23)cc1` [Compound 156, 2-(4,4-Difluoropiperidin-1-yl)-7-fluoro-N-(4-fluorobenzyl)quinazolin-4-amine] the MIC was 10 to 50 µM (≈ 3.9 to 19.5 µg/mL).
With `Fc1ccc(CNc2nc(N3CCCC3)nc3ccccc23)cc1` [Compound 172, N-(4-Fluorobenzyl)-2-(pyrrolidin-1-yl)quinazolin-4-amine] the MIC was less than 10 µM.
With `Fc1ccc(CNc2nc(N3CCCCC3)nc3cc(F)ccc23)cc1` [Compound 155, 7-Fluoro-N-(4-fluorobenzyl)-2-(piperidin-1-yl)quinazolin-4-amine] the MIC was less than 10 µM.
`c1ccc2c(c1)CC(Nc1nc(N3CCCCC3)nc3ccccc13)C2` [Compound 86, N-(2,3-Dihydro-1H-inden-2-yl)-2-(piperidin-1-yl)quinazolin-4-amine hydrochloride] showed an MIC of 10 to 50 µM.
`FC(F)(F)c1ccc(CNc2nc(N3CCCCC3)nc3ccccc23)cn1` [Compound 196, 2-(Piperidin-1-yl)-N-((6-(trifluoromethyl)pyridin-3-yl)methyl)quinazolin-4-amine hydrochloride] was tested, and the MIC was 10 to 50 µM.
Compound `Fc1ccc(CNc2nc(N3CCC(F)(F)CC3)c3ccccc3n2)cc1` [Compound 149, 4-(4,4-Difluoropiperidin-1-yl)-N-(4-fluorobenzyl)quinazolin-2-amine hydrochloride] has an MIC of 10 to 50 µM.
With `c1ccc2c(c1)CN(c1nc(N3CCCCC3)nc3ccccc13)C2` [Compound 85, 4-(Isoindolin-2-yl)-2-(piperidin-1-yl)quinazoline hydrochloride] the MIC was 10 to 50 µM.
For `COc1cc2c(cc1OC)CN(c1nc(NCc3ccccc3)c3ccccc3n1)CC2` [Compound 181, N-Benzyl-2-(6,7-dimethoxy-3,4-dihydroisoquinolin-2(1H)-yl)quinazolin-4-amine], the MIC was 10 to 50 µM (≈ 4.27 to 21.3 µg/mL).
`COc1ccc(CNc2nc(NCc3ccccc3)c3ccccc3n2)cc1` [Compound 129, N^4-Benzyl-N^2-(4-methoxybenzyl)quinazoline-2,4-diamine hydrochloride] showed an MIC of 10 to 50 µM.
`Fc1ccc(CNc2nc(NCc3ccc(F)cc3)c3ccc(F)cc3n2)cc1` [Compound 157, 7-Fluoro-N^2, N^4-bis(4-fluorobenzyl)quinazoline-2,4-diamine] showed an MIC of less than 10 µM.
In the case of `c1ccc2c(c1)CCN(c1nc(N3CCCCC3)c3ccccc3n1)C2` [Compound 113, 2-(3,4-Dihydroisoquinolin-2(1H)-yl)-4-(piperidin-1-yl)quinazoline hydrochloride], the MIC is reported as 10 to 50 µM.
`c1ccc(CNc2nc(N3CCCOCC3)nc3ccccc23)cc1` [Compound 52, N-Benzyl-2-(1,4-oxazepan-4-yl)quinazolin-4-amine] was tested, and the MIC was 10 to 50 µM (≈ 3.34 to 16.7 µg/mL).
With `Oc1ccc(CNc2nc(N3CCCCC3)nc3ccccc23)cc1` [Compound 164, 4-((2-(Piperidin-1-yl)quinazolin-4-ylamino)methyl)phenol] the MIC was 10 to 50 µM (≈ 3.34 to 16.7 µg/mL).
`Clc1ccc(C2(Nc3nc(N4CCCCC4)nc4ccccc34)CC2)cc1` [Compound 141, N-(1-(4-Chlorophenyl)cyclopropyl)-2-(piperidin-1-yl)quinazolin-4-amine hydrochloride] gave an MIC of 10 to 50 µM.
`Cc1ccc(C(C)(C)Nc2nc(N3CCCC3)nc3ccccc23)cc1` [Compound 103, 2-(Pyrrolidin-1-yl)-N-(2-p-tolylpropan-2-yl)quinazolin-4-amine] showed an MIC of 10 to 50 µM (≈ 3.46 to 17.3 µg/mL).
`COc1cc2nc(N3CCCCC3)nc(NCc3ccccc3)c2cc1OC` [Compound 70, N-Benzyl-6,7-dimethoxy-2-(piperidin-1-yl)quinazolin-4-amine] was tested, and the MIC was 10 to 50 µM (≈ 3.78 to 18.9 µg/mL).
Work on `Fc1ccc(C2(Nc3nc(N4CCC(F)(F)CC4)nc4ccccc34)CC2)cc1` [Compound 153, 2-(4,4-Difluoropiperidin-1-yl)-N-(1-(4-fluorophenyl)cyclopropyl)quinazolin-4-amine] yielded an MIC of 50 to 128 µM (≈ 19.9 to 51 µg/mL).
With `Cc1ccc(CNc2nc(NCc3ccccc3)c3ccccc3n2)cc1` [Compound 28, N^4-Benzyl-N^2-(4-methylbenzyl)quinazoline-2,4-diamine] the MIC was 10 to 50 µM (≈ 3.54 to 17.7 µg/mL).
For `Fc1ccc(CNc2nc(NCC3CCCCC3)nc3ccccc23)cc1` [Compound 208, N^2-(Cyclohexylmethyl)-N^4-(4-fluorobenzyl)quinazoline-2,4-diamine], the MIC was 10 to 50 µM (≈ 3.64 to 18.2 µg/mL).
In the case of `Cc1ccc([C@@H](C)Nc2nc(N3CCCCC3)nc3ccccc23)cc1` [Compound 101, (R)-2-(Piperidin-1-yl)-N-(1-p-tolylethyl)quinazolin-4-amine], the MIC is reported as 10 to 50 µM (≈ 3.46 to 17.3 µg/mL).
With `c1ccc2c(NCc3ccsc3)nc(N3CCCCC3)nc2c1` [Compound 191, 2-(Piperidin-1-yl)-N-(thiophen-3-ylmethyl)quinazolin-4-amine] the MIC was 10 to 50 µM (≈ 3.24 to 16.2 µg/mL).
For `FC1(F)CCN(c2nc(NCc3ccc(Cl)cc3)nc3ccccc23)CC1` [Compound 146, N-(4-Chlorobenzyl)-4-(4,4-difluoropiperidin-1-yl)quinazolin-2-amine hydrochloride], the MIC was 10 to 50 µM.
`CC(C)(C)OC(=O)N1CCN(c2nc(NCc3ccccc3)c3ccccc3n2)CC1` [Compound 31, tert-Butyl 4-(4-(benzylamino)quinazolin-2-yl)piperazine-1-carboxylate] showed an MIC of 10 to 50 µM (≈ 4.2 to 21 µg/mL).
`Clc1ccc(CNc2nc(N3CCCCC3)c3ccccc3n2)cc1` [Compound 110, N-(4-Chlorobenzyl)-4-(piperidin-1-yl)quinazolin-2-amine hydrochloride] was tested, and the MIC was 10 to 50 µM.
Work on `Nc1nc(NCc2ccccc2)c2ccccc2n1` [compound 3, N^4-Benzylquinazoline-2,4-diamine, reference compound] yielded an MIC of 50 to 128 µM (≈ 12.5 to 32 µg/mL).
Work on `CCOC(=O)CNc1nc(NCc2ccc(F)cc2)c2ccccc2n1` [Compound 206, Ethyl 2-(4-(4-fluorobenzylamino)quinazolin-2-ylamino)acetate hydrochloride] yielded an MIC of 50 to 128 µM.
`Fc1ccc(CNc2nc(N3CCN(Cc4ccccc4)CC3)nc3ccccc23)cc1` [Compound 201, 2-(4-Benzylpiperazin-1-yl)-N-(4-fluorobenzyl)quinazolin-4-amine] gave an MIC of 10 to 50 µM (≈ 4.28 to 21.4 µg/mL).
`c1ccc(N2CCN(c3nc(N4CCCCC4)nc4ccccc34)CC2)cc1` [Compound 88, 4-(4-Phenylpiperazin-1-yl)-2-(piperidin-1-yl)quinazoline] gave an MIC of 50 to 128 µM (≈ 18.7 to 47.8 µg/mL).
In the case of `Cc1ccc(CNc2nc(NCc3ccc(F)cc3)nc3ccccc23)o1` [Compound 158, N^2-(4-Fluorobenzyl)-N^4-((5-methylfuran-2-yl)methyl)quinazoline-2,4-diamine hydrochloride], the MIC is reported as 10 to 50 µM.
`FC(F)(F)c1ccc(CNc2nc(N3CCCCC3)c3ccccc3n2)cc1` [Compound 109, 4-(Piperidin-1-yl)-N-(4-(trifluoromethyl)benzyl)quinazolin-2-amine hydrochloride] was tested, and the MIC was 10 to 50 µM.
`c1ccc(CNc2nc(N3CCSCC3)nc3ccccc23)cc1` [Compound 140, N-Benzyl-2-thiomorpholinoquinazolin-4-amine hydrochloride] was tested, and the MIC was less than 10 µM.
With `COc1ccccc1CNc1nc(N2CCCCC2)nc2ccccc12` [Compound 81, N-(2-Methoxybenzyl)-2-(piperidin-1-yl)quinazolin-4-amine hydrochloride] the MIC was 10 to 50 µM.
`COC(=O)[C@@H](Nc1nc(N2CCCCC2)nc2ccccc12)c1ccccc1` [Compound 175, (S)-Methyl 2-phenyl-2-(2-(piperidin-1-yl)quinazolin-4-ylamino)acetate] was tested, and the MIC was 10 to 50 µM (≈ 3.76 to 18.8 µg/mL).
`CN1CCN(c2nc(NCCNc3ccc([N+](=O)[O-])cc3)c3ccccc3n2)CC1` [Compound 11, N^1-(2-(4-Methylpiperazin-1-yl)quinazolin-4-yl)-N^2-(4-nitrophenyl)ethane-1,2-diamine] showed an MIC of 50 to 128 µM (≈ 20.4 to 52.2 µg/mL).
Compound `COc1cc2nc(NCc3ccc(F)cc3)nc(NCc3ccc(F)cc3)c2cc1OC` [Compound 168, N^2,N^4-bis(4-Fluorobenzyl)-6,7-dimethoxyquinazoline-2,4-diamine] has an MIC of 10 to 50 µM (≈ 4.36 to 21.8 µg/mL).
With `C[C@H](Nc1nc(N2CCCCC2)nc2ccccc12)c1ccccc1` [Compound 32, (S)—N-(1-Phenylethyl)-2-(piperidin-1-yl)quinazolin-4-amine] the MIC was 10 to 50 µM (≈ 3.32 to 16.6 µg/mL).
`CC(C)(C)C(=O)N1CCN(c2nc(NCc3ccccc3)c3ccccc3n2)CC1` [Compound 57, 1-(4-(4-(Benzylamino)quinazolin-2-yl)piperazin-1-yl)-2,2-dimethylpropan-1-one] gave an MIC of 10 to 50 µM (≈ 4.04 to 20.2 µg/mL).
With `c1ccc(CCCNc2nc(N3CCCCC3)nc3ccccc23)cc1` [Compound 95, N-(3-Phenylpropyl)-2-(piperidin-1-yl)quinazolin-4-amine] the MIC was less than 10 µM.
